Data as given in article PMC6264549, “Synthesis and Biological Evaluation of 3-Substituted-indolin-2-one Derivatives Containing Chloropyrrole Moieties” (Molecules, 2011).

Experiments:
[1] = tested on: non-small cell lung cancer (A549); test: MTT cell growth inhibition assay, A549; assay type: cell-based; conditions: Homo sapiens, 48 h, A549 cells, two days, read-out: IC50 ± SD A549
Description: (§1) The antitumor activities of 14a-r were evaluated in vitro on four tumor cell lines, including non-small cell lung cancer (A549), oral epithelial (KB), melanoma (K111) and large cell lung cancer cell lines (NCI-H460) by the MTT assay, and the results are summarized in Table 1.
(§2) Non-small cell lung cancer (A549), oral epithelial (KB), large cell lung cancer (NCI-H460) and melanoma cell lines (K111) were cultured in Dulbecco’s modified Eagle medium (GIBCO) containing 10% (v/v) inactivated newborn calf serum (Boren Bio-Pharmaceutical Co., Ltd.: Guangzhou, China), […] L-glutamine (SANGON), […] penicillin, 100 µg/mL streptomycin. Cells were grown in a 5% CO2 incubator at 37 °C.
(§3) The antitumor activities were determined by the MTT assay. Cells (2 × 10^3 cells/well) were seeded in 96-well plates. After incubation overnight, each compound, which was dissolved in dimethylsulfoxide (DMSO) and diluted with phosphate buffer solution (PBS), was added to each well and the cells were cultured for another two days at 37 °C. 20 μL (5 mg/mL) MTT solution was added to per well and the culture continued for another 3–4 h. The medium was removed and 100 μL DMSO was added to dissolve formazan crystals. Absorbance was measured at 492 nm using an ELISA reader (Thermo). The antitumor activities were expressed as IC50.

[2] = tested on: large cell lung cancer cell lines (NCI-H460); test: MTT cell growth inhibition assay, NCI-H460; assay type: cell-based; conditions: Homo sapiens, 48 h, NCI-H460 cells, two days, read-out: IC50 ± SD NCI-H460
Description: as §1, §2, §3

oral epithelial (KB) = test: MTT cell growth inhibition assay, KB; assay type: cell-based; conditions: Homo sapiens, 48 h, KB cells, two days
Description: as §1, §2, §3

melanoma (K111) = test: MTT cell growth inhibition assay, K111; assay type: cell-based; conditions: 48 h, K111 cells, two days, read-out: IC50 ± SD K111
Description: as §1, §2, §3

VEGFR2 tyrosine kinase = VEGFR2 tyrosine kinase (Homo sapiens, UniProt P35968); test: VEGFR2 inhibition assay (ELISA); assay type: biochemical; conditions: 5.0 µM ATP, Poly (Glu, Tyr)4:1 substrate, read-out: IC50 ± SD VEGFR2
Description: Seven compounds in the 14a–r series with low IC50 values on the tumor cell lines were evaluated for their inhibition of VEGFR2 using an enzyme-linked immunosorbent assay (ELISA), and the data are summarized in Table 2.
The VEGFR2 inhibition assay was performed by enzyme-linked immunosorbent assay (ELISA) in 96-well plates pre-coated with 2.5 µg/well Poly (Glu, Tyr)4:1 as a substrate. Each well was treated with 90 µL of 5.0 µM ATP (Amresco) solution and 10 µL of one of the seven compounds at varying concentrations, which were diluted in reaction buffer (50 mM HEPES pH 7.4, 20 mM MgCl2, 0.1 mM Na3VO4, 1 mM DTT). […] The reaction was initiated by adding 1 µL/well of VEGFR2 tyrosine kinase. After incubation for 1 h at 37 °C, the plates were washed three times with phosphate buffered saline containing 0.1% Tween-20 (T-PBS). Next, anti-phosphotyrosine (PY99; 1:1,000 dilution, 100 μL/well) antibody was added. After 1 h incubation at room temperature, the plates were washed three times, and goat anti-mouse IgG horseradish peroxidase (100 μL/well of 1:2,000 dilution) diluted in T-PBS was added. The plates were reincubated at room temperature for 1 h, and washed as before. Finally, color development solution (0.03% H2O2 and 2 mg/mL o-phenylenediamine in 0.1 M citrate buffer, pH 5.5, 100 µL/well) was added and the plates were incubated at room temperature until color emerged. The reaction was terminated by the addition of 2 M H2SO4 (50 µL/well), and A492 was measured using a tunable wavelength microplate reader (Molecular Devices SPECTRAMAX190). The inhibition rate was calculated using the equation: [1 − (A492/A492 control)] × 100%.

hERG potassium currents = hERG potassium currents (Homo sapiens, UniProt Q12809); test: Inhibition of hERG potassium currents in HEK239 cells (cardiotoxicity)
hERG potassium currents, sequence (Q12809 whole entry): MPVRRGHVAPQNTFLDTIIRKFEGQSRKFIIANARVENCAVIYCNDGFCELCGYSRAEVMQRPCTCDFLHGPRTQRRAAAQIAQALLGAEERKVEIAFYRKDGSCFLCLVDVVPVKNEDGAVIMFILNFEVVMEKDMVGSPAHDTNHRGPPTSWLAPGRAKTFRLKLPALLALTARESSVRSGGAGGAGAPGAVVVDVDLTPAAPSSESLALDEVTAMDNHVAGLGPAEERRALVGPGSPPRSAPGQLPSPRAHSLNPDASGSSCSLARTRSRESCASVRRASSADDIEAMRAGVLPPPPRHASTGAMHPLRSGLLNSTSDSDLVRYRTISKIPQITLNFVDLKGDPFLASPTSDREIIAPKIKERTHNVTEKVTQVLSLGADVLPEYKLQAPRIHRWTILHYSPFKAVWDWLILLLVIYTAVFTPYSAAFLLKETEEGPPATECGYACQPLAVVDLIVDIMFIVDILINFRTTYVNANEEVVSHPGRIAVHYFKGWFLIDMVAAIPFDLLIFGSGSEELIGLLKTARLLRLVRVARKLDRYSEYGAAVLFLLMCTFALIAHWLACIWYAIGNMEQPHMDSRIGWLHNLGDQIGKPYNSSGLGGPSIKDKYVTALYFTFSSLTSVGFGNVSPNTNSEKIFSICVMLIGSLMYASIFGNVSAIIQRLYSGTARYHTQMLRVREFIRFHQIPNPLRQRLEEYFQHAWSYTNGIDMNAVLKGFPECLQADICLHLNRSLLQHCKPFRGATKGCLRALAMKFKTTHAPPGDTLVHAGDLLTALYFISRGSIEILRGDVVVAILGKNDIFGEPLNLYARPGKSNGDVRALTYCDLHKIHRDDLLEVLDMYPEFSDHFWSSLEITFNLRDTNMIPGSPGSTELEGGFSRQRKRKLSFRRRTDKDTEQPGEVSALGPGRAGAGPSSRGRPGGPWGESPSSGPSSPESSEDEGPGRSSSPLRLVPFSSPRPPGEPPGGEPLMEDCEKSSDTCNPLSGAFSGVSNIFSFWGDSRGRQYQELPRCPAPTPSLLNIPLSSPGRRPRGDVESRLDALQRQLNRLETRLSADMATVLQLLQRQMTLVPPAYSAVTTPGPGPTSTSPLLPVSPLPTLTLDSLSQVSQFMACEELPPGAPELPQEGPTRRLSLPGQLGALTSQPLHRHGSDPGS

VEGFR2 tyrosine kinase, sequence (P35968 20-1356): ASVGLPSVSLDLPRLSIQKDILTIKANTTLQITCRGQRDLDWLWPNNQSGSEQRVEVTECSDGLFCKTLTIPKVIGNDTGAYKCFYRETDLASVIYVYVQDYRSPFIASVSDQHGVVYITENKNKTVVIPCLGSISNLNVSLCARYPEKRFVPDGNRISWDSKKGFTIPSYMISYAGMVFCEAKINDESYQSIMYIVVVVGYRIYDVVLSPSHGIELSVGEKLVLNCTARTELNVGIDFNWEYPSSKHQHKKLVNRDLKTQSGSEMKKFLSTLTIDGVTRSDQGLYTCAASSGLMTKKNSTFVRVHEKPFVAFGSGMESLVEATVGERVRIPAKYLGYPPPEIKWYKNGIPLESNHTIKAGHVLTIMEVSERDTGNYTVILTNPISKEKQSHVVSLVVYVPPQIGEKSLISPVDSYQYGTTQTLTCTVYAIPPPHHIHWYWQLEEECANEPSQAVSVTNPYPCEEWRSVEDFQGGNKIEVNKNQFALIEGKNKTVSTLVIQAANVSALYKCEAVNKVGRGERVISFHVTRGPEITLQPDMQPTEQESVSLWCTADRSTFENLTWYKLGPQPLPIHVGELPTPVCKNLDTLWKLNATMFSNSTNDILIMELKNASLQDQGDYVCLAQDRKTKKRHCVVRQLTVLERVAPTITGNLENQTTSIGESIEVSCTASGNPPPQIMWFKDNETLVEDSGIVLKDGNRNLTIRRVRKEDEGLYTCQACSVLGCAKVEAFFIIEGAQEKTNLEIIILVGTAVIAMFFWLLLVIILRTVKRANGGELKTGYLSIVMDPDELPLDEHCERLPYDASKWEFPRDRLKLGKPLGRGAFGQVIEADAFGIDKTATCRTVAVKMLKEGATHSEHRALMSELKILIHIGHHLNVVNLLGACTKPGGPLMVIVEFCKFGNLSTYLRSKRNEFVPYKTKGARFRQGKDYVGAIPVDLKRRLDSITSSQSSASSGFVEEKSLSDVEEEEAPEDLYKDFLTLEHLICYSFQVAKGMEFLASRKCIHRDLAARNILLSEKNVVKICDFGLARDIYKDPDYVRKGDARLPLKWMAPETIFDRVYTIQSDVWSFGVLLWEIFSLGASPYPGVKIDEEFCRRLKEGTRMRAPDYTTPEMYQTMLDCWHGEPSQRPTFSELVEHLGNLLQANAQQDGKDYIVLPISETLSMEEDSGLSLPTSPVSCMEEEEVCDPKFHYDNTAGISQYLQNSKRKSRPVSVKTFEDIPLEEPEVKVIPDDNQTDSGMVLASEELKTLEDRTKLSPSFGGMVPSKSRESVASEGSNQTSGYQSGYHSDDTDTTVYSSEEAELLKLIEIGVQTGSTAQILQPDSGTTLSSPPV

SMILES | IC50 [1] | melting point | IC50 [2] | IC50 (oral epithelial (KB)) | IC50 (melanoma (K111)) | IC50 (VEGFR2 tyrosine kinase) | IC50 (hERG potassium currents)
Cc1[nH]c(/C=C2\C(=O)Nc3ccc(F)cc32)c(Cl)c1C(=O)NCCN1CCOCC1 [Compound 14a, (Z)-4-Chloro-5-((5-fluoro-2-oxoindolin-3-ylidene)methyl)-2-methyl-N-(2-morpholinoethyl)-1H-pyrrole-3-carboxamide] | 1.47 ± 0.13 µM | 268.5 to 269.7 °C | > 100 µM | 52.9 ± 7.93 µM | > 100 µM | – | –
Cc1[nH]c(/C=C2\C(=O)Nc3ccc(F)cc32)c(Cl)c1C(=O)N1CCN(C)CC1 [Compound 14b, (Z)-3-((3-Chloro-5-methyl-4-(4-methylpiperazine-1-carbonyl)-1H-pyrrol-2-yl)methylene)-5-fluoroindolin-2-one] | > 100 µM | 276.7 to 278.5 °C | > 100 µM | > 100 µM | > 100 µM | – | –
Cc1[nH]c(/C=C2\C(=O)Nc3ccc(F)cc32)c(Cl)c1C(=O)NC1CNC1 [Compound 14c, (Z)-N-(azetidin-3-yl)-4-chloro-5-((5-fluoro-2-oxoindolin-3-ylidene)methyl)-2-methyl-1H-pyrrole-3-carboxamide] | 2.43 ± 0.26 µM | 230.5 to 232 °C | 1.41 ± 0.17 µM | 1.35 ± 0.12 µM | 3.41 ± 0.52 µM | 0.0068 ± 0.0018 µM | –
CCCNC(=O)c1c(C)[nH]c(/C=C2\C(=O)Nc3ccc(F)cc32)c1Cl [Compound 14d, (Z)-4-Chloro-5-((5-fluoro-2-oxoindolin-3-ylidene)methyl)-2-methyl-N-propyl-1H-pyrrole-3-carboxamide] | > 100 µM | > 290 °C | > 100 µM | > 100 µM | > 100 µM | – | –
Cc1[nH]c(/C=C2\C(=O)Nc3ccc(F)cc32)c(Cl)c1C(=O)NCCCN(C)C [Compound 14e, (Z)-4-Chloro-N-(3-(dimethylamino)propyl)-5-((5-fluoro-2-oxoindolin-3-ylidene)methyl)-2-methyl-1H-pyrrole-3-carboxamide] | 2.33 ± 0.31 µM | 235.1 to 237.3 °C | > 100 µM | 2.88 ± 0.33 µM | > 100 µM | – | –
Cc1[nH]c(/C=C2\C(=O)Nc3ccc(F)cc32)c(Cl)c1C(=O)NCCN(C)C [Compound 14f, (Z)-4-Chloro-N-(2-(dimethylamino)ethyl)-5-((5-fluoro-2-oxoindolin-3-ylidene)methyl)-2-methyl-1H-pyrrole-3-carboxamide] | 1.69 ± 0.17 µM | 271.8 to 274.2 °C | 1.67 ± 0.18 µM | 1.56 ± 0.08 µM | 1.35 ± 0.28 µM | 0.0062 ± 0.0008 µM | –
CCNCCNC(=O)c1c(C)[nH]c(/C=C2\C(=O)Nc3ccc(F)cc32)c1Cl [Compound 14g, (Z)-4-Chloro-N-(2-(ethylamino)ethyl)-5-((5-fluoro-2-oxoindolin-3-ylidene)methyl)-2-methyl-1H-pyrrole-3-carboxamide] | 1.03 ± 0.09 µM | 211 to 211.8 °C | 1.41 ± 0.09 µM | 0.67 ± 0.08 µM | 1.19 ± 0.21 µM | 0.005 ± 0.0011 µM | 0.43 µM
CCN(CC)CCNC(=O)c1c(C)[nH]c(/C=C2\C(=O)Nc3ccc(Cl)cc32)c1Cl [Compound 14i, (Z)-4-Chloro-5-((5-chloro-2-oxoindolin-3-ylidene)methyl)-N-(2-(diethylamino)ethyl)-2-methyl-1H-pyrrole-3-carboxamide] | 0.32 ± 0.03 µM | 246 to 247 °C | > 100 µM | 1.15 ± 0.2 µM | > 100 µM | 0.0112 ± 0.0026 µM | –
CCN(CC)CCNC(=O)c1c(Cl)[nH]c(/C=C2\C(=O)Nc3ccc(Br)cc32)c1C [Compound 14j, (Z)-5-((5-bromo-2-oxoindolin-3-ylidene)methyl)-2-chloro-N-(2-(diethylamino)ethyl)-4-methyl-1H-pyrrole-3-carboxamide] | > 100 µM | 248.1 to 248.5 °C | > 100 µM | 34.2 ± 2.96 µM | > 100 µM | – | –
CCN(CC)CCNC(=O)c1c(C)[nH]c(/C=C2\C(=O)Nc3ccccc32)c1Cl [Compound 14k, (Z)-4-Chloro-N-(2-(diethylamino)ethyl)-2-methyl-5-((2-oxoindolin-3-ylidene)methyl)-1H-pyrrole-3-carboxamide] | > 100 µM | 238.5 to 240.1 °C | > 100 µM | 5.09 ± 1.01 µM | > 100 µM | – | –
CCN(CC)CCNC(=O)c1c(C)[nH]c(/C=C2\C(=O)Nc3ccc(C)cc32)c1Cl [Compound 14l, (Z)-4-Chloro-N-(2-(diethylamino)ethyl)-2-methyl-5-((5-methyl-2-oxoindolin-3-ylidene)methyl)-1H-pyrrole-3-carboxamide] | > 100 µM | 238.2 to 240 °C | > 100 µM | 64.4 ± 7.51 µM | > 100 µM | – | –
CCN(CC)CCNC(=O)c1c(Cl)[nH]c(/C=C2\C(=O)Nc3ccc(F)cc32)c1Cl [Compound 14m, (Z)-2,4-Dichloro-N-(2-(diethylamino)ethyl)-5-((5-fluoro-2-oxoindolin-3-ylidene)methyl)-1H-pyrrole-3-carboxamide] | > 100 µM | 269.1 to 270.3 °C | > 100 µM | > 100 µM | > 100 µM | – | –
CCN(CC)CCNC(=O)c1cc(/C=C2\C(=O)Nc3ccc(F)cc32)[nH]c1Cl [Compound 14n, (Z)-2-Chloro-N-(2-(diethylamino)ethyl)-5-((5-fluoro-2-oxoindolin-3-ylidene)methyl)-1H-pyrrole-3-carboxamide] | 3.37 ± 0.27 µM | 233.5 to 234.7 °C | > 100 µM | 4.23 ± 0.65 µM | > 100 µM | – | –
CCN(CC)CCNC(=O)c1c(Cl)[nH]c(/C=C2\C(=O)Nc3ccc(F)cc32)c1C [Compound 14o, (Z)-2-Chloro-N-(2-(diethylamino)ethyl)-5-((5-fluoro-2-oxoindolin-3-ylidene)methyl)-4-methyl-1H-pyrrole-3-carboxamide] | 2.14 ± 0.26 µM | 243.4 to 244 °C | > 100 µM | 1.51 ± 0.11 µM | > 100 µM | – | –
CCNCCNC(=O)c1c(Cl)[nH]c(/C=C2\C(=O)Nc3ccc(F)cc32)c1C [Compound 14p, (Z)-2-Chloro-N-(2-(ethylamino)ethyl)-5-((5-fluoro-2-oxoindolin-3-ylidene)methyl)-4-methyl-1H-pyrrole-3-carboxamide] | 1.41 ± 0.09 µM | 215 to 216.8 °C | 1.66 ± 0.23 µM | 0.69 ± 0.07 µM | 1.24 ± 0.16 µM | 0.006 ± 0.0012 µM | –
CCc1c(/C=C2\C(=O)Nc3ccc(F)cc32)[nH]c(Cl)c1C(=O)NCCN(CC)CC [Compound 14q, (Z)-2-Chloro-N-(2-(diethylamino)ethyl)-4-ethyl-5-((5-fluoro-2-oxoindolin-3-ylidene)methyl)-1H-pyrrole-3-carboxamide] | 16.7 ± 2.7 µM | 245.2 to 246.8 °C | > 100 µM | 34.4 ± 2.9 µM | > 100 µM | – | –
CCNCCNC(=O)c1c(Cl)[nH]c(/C=C2\C(=O)Nc3ccc(F)cc32)c1CC [Compound 14r, (Z)-2-Chloro-4-ethyl-N-(2-(ethylamino)ethyl)-5-((5-fluoro-2-oxoindolin-3-ylidene)methyl)-1H-pyrrole-3-carboxamide] | 1.49 ± 0.11 µM | 232 to 233.1 °C | 1.22 ± 0.1 µM | 1.43 ± 0.21 µM | 3.72 ± 0.46 µM | 0.0087 ± 0.0013 µM | –
